The record followed here is patent US11299487B2, “Compounds and compositions as modulators of TLR signaling” (Neuropore Therapies, Inc., priority 2019, dated 2022).

SMILES strings stand for the structures.

In assay [1] the target is T1, human TLR2 (Homo sapiens, UniProt O60603).
T1 construct: host or cells: HEK-Blue hTLR2 (HEK-293)
The assay is described as follows: HEK-Blue hTLR2 antagonism assay (SEAP reporter) with agonist Pam2CSK4 (TLR2/6 agonist). In kind it is cell-based. The conditions noted are these: Table B; HEK-Blue hTLR2 cells, ~3×EC50 Pam2CSK4, 18 h, SEAP OD 655 nm, 8-point dilutions. As to the method: (§1) Synthetic diacylated lipoprotein (Pam2CSK4, TLR2/6 agonist) and synthetic triacylated lipoprotein (Pam3CSK4, TLR1/2 agonist) were obtained from InvivoGen and were dissolved in endotoxin-free water to a concentration 1 mg/mL, vortexed until complete solubilization, and stored in aliquots at −20° C. Prior to addition to cells, an aliquot of the dissolved ligand was vortexed shortly and then was diluted in medium to 25 ng/mL Pam2CSK4 or 1000 ng/mL Pam3CSK4.
(§2) Test compounds were solubilized fresh to 10-20 mM stocks in DMSO and sonicated for 5-10 minutes in a water bath sonicator. Serial dilutions were prepared in DMSO, and then diluted in medium. The final concentration of DMSO used in the assay was 1%.
(§3) HEK-Blue hTLR2 reporter cells (InvivoGen) are HEK-293 cells stably expressing both the human TLR2 gene and a secreted embryonic alkaline phosphatase (SEAP) reporter construct downstream of NFκB promotor sites. HEK-Blue hTLR2 reporters were cultured according to manufacturer's protocol using Dulbecco's Modified Eagle Medium (DMEM; Gibco) containing 1× GlutaMax (Gibco), 10% heat-inactivated Fetal Bovine Serum (Gibco), Pen-Strep (50 U/mL penicillin, 50 μg/mL streptomycin, Gibco), 100 μg/mL Normocin (InvivoGen), and the selective antibiotic, 1×HEK-Blue Selection (InvivoGen). Quanti-Blue reagent (InvivoGen) for detection and quantification of secreted alkaline phosphatase was dissolved in 100 mL of endotoxin-free water, warmed to 37° C. for 30 minutes and then filtered using a 0.2 μm membrane.
(§4) On day 1, 50 μL of each test compound dilution in duplicates or a vehicle control was added to each well of a 96-well plate followed by addition of 150 μL of HEK-Blue hTLR2 cell suspension (1×10^5 cells/well) and incubated at 37° C./5% CO2 for 2 h. Next, 50 μL of an approximate 3×EC50 concentration of each agonist (Pam2CSK4 or Pam3CSK4) was added to the wells containing test compounds or the vehicle control. The plates were then incubated at 37° C./5% CO2 for 18 h. For each assay run, non-treated HEK-Blue hTLR2 cells were treated with serial dilutions of agonists to determine EC50 values for the respective run.
(§5) On day 2, secreted alkaline phosphatase (SEAP) activity was detected in cell culture supernatants. In brief, 20 μL was collected from each well and transferred to a 96-well plate. Next, 200 μL of Quanti-Blue detection reagent was added to each well. Plates were incubated at room temperature for 15 min. and SEAP activity was assessed by spectrophotometer OD reading at 655 nm. […] IC50 values were calculated based on 8-point dilutions for each compound.

Assay [2] addresses T1, human TLR2. The assay is described as follows: HEK-Blue hTLR2 antagonism assay (SEAP reporter) with agonist Pam3CSK4 (TLR1/2 agonist). Type of assay: cell-based. The conditions noted are these: Table B; HEK-Blue hTLR2 cells, ~3×EC50 Pam3CSK4, 18 h, SEAP OD 655 nm, 8-point dilutions. Here is the method: as §1, §2, §3, §4, §5

T1 sequence (O60603 21-784): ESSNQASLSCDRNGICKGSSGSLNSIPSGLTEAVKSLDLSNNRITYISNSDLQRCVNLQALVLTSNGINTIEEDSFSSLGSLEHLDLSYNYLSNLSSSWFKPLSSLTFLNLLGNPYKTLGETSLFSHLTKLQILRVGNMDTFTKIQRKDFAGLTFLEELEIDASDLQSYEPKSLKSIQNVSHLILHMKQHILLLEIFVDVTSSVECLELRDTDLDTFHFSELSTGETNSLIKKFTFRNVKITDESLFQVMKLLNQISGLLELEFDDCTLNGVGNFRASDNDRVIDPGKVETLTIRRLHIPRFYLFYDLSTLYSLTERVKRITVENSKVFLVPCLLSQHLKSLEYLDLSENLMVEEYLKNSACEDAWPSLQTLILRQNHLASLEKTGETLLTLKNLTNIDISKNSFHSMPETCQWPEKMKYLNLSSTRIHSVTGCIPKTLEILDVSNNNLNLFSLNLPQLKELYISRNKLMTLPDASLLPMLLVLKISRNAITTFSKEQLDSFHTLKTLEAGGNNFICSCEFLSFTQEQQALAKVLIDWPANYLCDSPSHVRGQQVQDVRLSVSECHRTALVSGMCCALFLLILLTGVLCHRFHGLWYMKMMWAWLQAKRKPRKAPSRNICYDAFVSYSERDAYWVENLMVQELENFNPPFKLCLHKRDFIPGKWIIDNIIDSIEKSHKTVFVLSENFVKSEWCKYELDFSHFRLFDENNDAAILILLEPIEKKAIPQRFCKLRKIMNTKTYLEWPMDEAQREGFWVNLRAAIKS

As usually defined, the IC50 is the point on the concentration scale where inhibition reaches its midpoint. Low values mean higher potency, high ones lower potency. As to `COc1cc(C#Cc2ccc(N3CCOCC3)cc2)cc(C=O)c1O` [Compound B8, 2-hydroxy-3-methoxy-5-((4-morpholinophenyl)ethynyl)benzaldehyde], the IC50 is 2.9 µM in assay [1] and 1.6 µM in assay [2].
The like results for `O=Cc1cc(NC(=O)c2ccccc2)cc(F)c1O` [Compound B9, N-(3-fluoro-5-formyl-4-hydroxyphenyl)benzamide] were, in that order, 8.1 µM and 6.8 µM.
The like results for `O=Cc1cc(NC(=O)Nc2ccccc2)cc(F)c1O` [Compound B10, 1-(3-fluoro-5-formyl-4-hydroxyphenyl)-3-phenylurea] were, in that order, 11.6 µM and 7.2 µM.
The like results for `O=Cc1cc(C(=O)Nc2ccc(C(F)(F)F)cc2)cc(F)c1O` [Compound B13, 3-fluoro-5-formyl-4-hydroxy-N-(4-(trifluoromethyl)phenyl)benzamide] were, in that order, 1.9 µM and 1.9 µM.
In the case of `O=Cc1cc(C(=O)Nc2cnc(N3CCCC3)nc2)cc(F)c1O` [Compound B59, 3-fluoro-5-formyl-4-hydroxy-N-(2-(pyrrolidin-1-yl)pyrimidin-5-yl)benzamide], the IC50 in assay [1] turned out to be 32.7 µM; in assay [2], 19.8 µM.
On the same counts, the results for `O=Cc1cc(C(=O)Nc2ccc(N3CCCC3)nc2)cc(F)c1O` [Compound B61, 3-fluoro-5-formyl-4-hydroxy-N-(6-(pyrrolidin-1-yl)pyridin-3-yl)benzamide] are 16.4 µM and 9.3 µM.
On the same counts, the results for `Cn1cc(-c2ccc(NC(=O)c3cc(F)c(O)c(C=O)c3)cc2)cn1` [Compound B63, 3-fluoro-5-formyl-4-hydroxy-N-(4-(1-methyl-1H-pyrazol-4-yl)phenyl)benzamide] are 30.1 µM and 11.3 µM.
On the same counts, the results for `O=Cc1cc(NC(=O)Nc2ccc(F)cc2)cc(F)c1O` [Compound B64, 1-(3-fluoro-5-formyl-4-hydroxyphenyl)-3-(4-fluorophenyl)urea] are 10.9 µM and 8 µM.
Take `O=Cc1cc(C(=O)Nc2ccc(N3CCCCC3)cc2)cc(F)c1O` [Compound B66, 3-fluoro-5-formyl-4-hydroxy-N-(4-(piperidin-1-yl)phenyl)benzamide]: the IC50 in assay [1] was found to be 1.8 µM; in assay [2], 1 µM.
On the same counts, the results for `O=Cc1cc(C(=O)Nc2ccc(N3CCN(C4CC4)CC3)cc2)cc(F)c1O` [Compound B69, N-(4-(4-cyclopropylpiperazin-1-yl)phenyl)-3-fluoro-5-formyl-4-hydroxybenzamide] are 7.6 µM and 2.3 µM.
The like results for `O=Cc1cc(C(=O)Nc2ccc(N3CCCN(C4CC4)CC3)cc2)cc(F)c1O` [Compound B70, N-(4-(4-cyclopropyl-1,4-diazepan-1-yl)phenyl)-3-fluoro-5-formyl-4-hydroxybenzamide] were, in that order, 11.5 µM and 6.5 µM.
On the same counts, the results for `O=Cc1cc(C(=O)Nc2cccc(N3CCCCC3)c2)cc(F)c1O` [Compound B72, 3-fluoro-5-formyl-4-hydroxy-N-(3-(piperidin-1-yl)phenyl)benzamide] are 4.6 µM and 2.4 µM.
For the molecule `O=Cc1cc(C(=O)Nc2ccc(N3CC4(CC4)CC3=O)cc2)cc(F)c1O` [Compound B78, 3-fluoro-5-formyl-4-hydroxy-N-(4-(6-oxo-5-azaspiro[2.4]heptan-5-yl)phenyl)benzamide], the concentration for half-maximal inhibition (IC50) in assay [1] is 34.4 µM; in assay [2] it was 18.5 µM.
The like results for `O=Cc1cc(C(=O)Nc2ccc(N3CCC4(CC4)C3)cc2)cc(F)c1O` [Compound B79, N-(4-(5-azaspiro[2.4]heptan-5-yl)phenyl)-3-fluoro-5-formyl-4-hydroxybenzamide] were, in that order, 4.1 µM and 1.4 µM.
On the same counts, the results for `O=Cc1cc(C#Cc2ccc(C(=O)NC3CC3)cc2)cc(F)c1O` [Compound B80, N-cyclopropyl-4-((3-fluoro-5-formyl-4-hydroxyphenyl)ethynyl)benzamide] are 15.5 µM and 35.9 µM.
Turning to `O=Cc1cc(C(=O)Nc2ccc(N3Cc4ccccc4C3)cc2)cc(F)c1O` [Compound B81, 3-fluoro-5-formyl-4-hydroxy-N-(4-(isoindolin-2-yl)phenyl)benzamide], the IC50 was 1 µM in assay [1] and 0.5 µM in assay [2].
As for `O=Cc1cc(C(=O)Nc2ccc(N3CCc4ccccc4C3)cc2)cc(F)c1O` [Compound B82, N-(4-(3,4-dihydroisoquinolin-2(1H)-yl)phenyl)-3-fluoro-5-formyl-4-hydroxybenzamide], the results for the IC50 in assay [1] and in assay [2] were 1.2 µM and 0.7 µM, respectively.
Consider `O=Cc1cc(C(=O)Nc2ccc(N3CCN(c4ccccc4)CC3)cc2)cc(F)c1O` [Compound B83, 3-fluoro-5-formyl-4-hydroxy-N-(4-(4-phenylpiperazin-1-yl)phenyl)benzamide], for which the IC50 in assay [1] came to 1 µM; in assay [2], 0.3 µM.
On the same counts, the results for `O=Cc1cc(C(=O)Nc2ccc(N3CCC(N4CCCC4)CC3)cc2)cc(F)c1O` [Compound B84, 3-fluoro-5-formyl-4-hydroxy-N-(4-(4-(pyrrolidin-1-yl)piperidin-1-yl)phenyl)benzamide] are 33.9 µM and 14.3 µM.
On the same counts, the results for `O=Cc1cc(C(=O)Nc2ccc(N3Cc4ccccc4C3)nc2)cc(F)c1O` [Compound B86, 3-fluoro-5-formyl-4-hydroxy-N-(6-(isoindolin-2-yl)pyridin-3-yl)benzamide] are 4.3 µM and 1.8 µM.
The like results for `O=Cc1cc(C(=O)Nc2ccc(N3CCOc4ccccc43)cc2)cc(F)c1O` [Compound B90, N-(4-(2,3-dihydro-4H-benzo[b][1,4]oxazin-4-yl)phenyl)-3-fluoro-5-formyl-4-hydroxybenzamide] were, in that order, 2.9 µM and 1.9 µM.
Take `O=Cc1cc(C(=O)Nc2ccc(N3CCCC3)c(C(F)(F)F)c2)cc(F)c1O` [Compound B91, 3-fluoro-5-formyl-4-hydroxy-N-(4-(pyrrolidin-1-yl)-3-(trifluoromethyl)phenyl) benzamide]: the values for the 50% inhibitory concentration (IC50) in assay [1] and in assay [2] were 2.2 µM and 1.6 µM, respectively.
On the same counts, the results for `CN(CC(C)(C)C)c1ccc(NC(=O)c2cc(F)c(O)c(C=O)c2)cc1` [Compound B94, 3-fluoro-5-formyl-4-hydroxy-N-(4-(methyl(neopentyl)amino)phenyl)benzamide] are 1 µM and 0.9 µM.
On the same counts, the results for `O=Cc1cc(C(=O)Nc2ccc(N3C4CCC3CC4)cc2)cc(F)c1O` [Compound B95, N-(4-(7-azabicyclo[2.2.1]heptan-7-yl)phenyl)-3-fluoro-5-formyl-4-hydroxybenzamide] are 3.7 µM and 2.8 µM.
On the same counts, the results for `O=Cc1cc(C(=O)Nc2ccc(N3C4CCCC3CC4)cc2)cc(F)c1O` [Compound B96, N-(4-(8-azabicyclo[3.2.1]octan-8-yl)phenyl)-3-fluoro-5-formyl-4-hydroxybenzamide] are 1.4 µM and 1.1 µM.
Regarding `CC1(C)CN(c2ccc(NC(=O)c3cc(F)c(O)c(C=O)c3)cn2)c2ccc(F)cc21` [Compound B99, 3-fluoro-N-(6-(5-fluoro-3,3-dimethylindolin-1-yl)pyridin-3-yl)-5-formyl-4-hydroxybenzamide], the IC50 stood at 0.6 µM in assay [1] and 0.5 µM in assay [2].
The like results for `O=Cc1cc(C(=O)Nc2ccc(N3CCN(c4ccccc4)CC3)nc2)cc(F)c1O` [Compound B102, 3-fluoro-5-formyl-4-hydroxy-N-(6-(4-phenylpiperazin-1-yl)pyridin-3-yl)benzamide] were, in that order, 2 µM and 1 µM.
As for `O=Cc1cc(C(=O)Nc2ccc(N3C[C@H]4CCC[C@H]4C3)nc2)cc(F)c1O` [Compound B103, 3-fluoro-5-formyl-N-(6-((3aR,6aS)-hexahydrocyclopenta[c]pyrrol-2(1H)-yl)pyridin-3-yl)-4-hydroxybenzamide], the values for the concentration for half-maximal inhibition (IC50) in assay [1] and in assay [2] were 1.7 µM and 1 µM, respectively.
